# Where two headings read alike, the source gives them in different places.
# Molecular target: T1, recombinant human liver GK (Homo sapiens, UniProt P35557)
# T1 construct: made in house; host or cells: E. coli
# T1 sequence (P35557 1-466 isoform P35557-2): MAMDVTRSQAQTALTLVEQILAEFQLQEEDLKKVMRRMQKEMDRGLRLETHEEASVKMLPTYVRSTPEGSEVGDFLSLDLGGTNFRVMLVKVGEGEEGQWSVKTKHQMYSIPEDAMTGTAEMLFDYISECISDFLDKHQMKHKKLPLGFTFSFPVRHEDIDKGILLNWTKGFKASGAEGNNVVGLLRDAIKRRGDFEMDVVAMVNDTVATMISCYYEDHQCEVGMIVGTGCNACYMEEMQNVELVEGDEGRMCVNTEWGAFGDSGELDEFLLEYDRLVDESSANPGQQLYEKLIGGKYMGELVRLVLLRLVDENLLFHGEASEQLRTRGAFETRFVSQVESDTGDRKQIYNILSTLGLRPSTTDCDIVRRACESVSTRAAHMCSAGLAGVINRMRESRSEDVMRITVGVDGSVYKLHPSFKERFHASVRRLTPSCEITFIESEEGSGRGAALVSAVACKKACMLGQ
# Test: Glucokinase (GK) activation assay, G6PDH-coupled thio-NADH absorbance at 405 nm
# Format: biochemical
# Description: The glucokinase activity is the degree of activation of glucokinase, as determined not by direct measurement of glucose-6-phosphate, but by measurement of the amount of thio-NADH produced upon production of phosphogluconolactone from glucose-6-phosphate by the reporter enzyme glucose-6-phosphate dehydrogenase.
# The recombinant human liver GK used in this assay was expressed in E. coli as FLAG fusion protein, and it was purified by […] M2 AFFINITY GEL (Sigma).
# The assay was carried out using a flat-bottomed 96-well plate at 30° C. A 69 μl portion of assay buffer (25 mM Hepes Buffer: pH=7.2, 2 mM MgCl2, 1 mM ATP, 0.5 mM TNAD, 1 mM dithiothreitol) was dispensed, and either a DMSO solution of the compound or 1 μl of DMSO as a control was added. Next, 20 μl of an enzyme mixture (FLAG-GK, 20 U/ml G6PDH) precooled in ice bath was dispensed, and then 10 μl of 25 mM glucose was added as substrate and reaction was initiated (final glucose concentration=2.5 mM).
# FLAG-GK was added to produce an absorbance increment of from 0.05 to 0.1 after 5 minutes in the presence of 1% DMSO.
# The OD values were measured at each concentration of the evaluated compound, using the OD value of the DMSO control as 100%. The Emax (%) and EC50 (μM) values were calculated from the OD value at each concentration, and used as indices of the GK activating power of the compounds.
# [1] = final glucose concentration 2.5 mM, 30° C.
Emax,EC50 [1],"Emax (OD value of DMSO control as 100%, final glucose concentration 2.5 mM, 30° C., read-out: Emax(%))",Structure (SMILES)
957%,250 nM,,"Cc1csc(NC(=O)c2cc(Oc3ccc(S(C)(=O)=O)cc3)cc(OC(C)C)c2)n1 [Production Example 1, 5-isopropoxy-3-(4-methanesulfonylphenoxy)-N-(4-methylthiazol-2-yl)-benzamide]"
,530 nM,936%,"COC(=O)NCc1ccc(Oc2cc(OC(C)C)cc(C(=O)Nc3nccs3)c2)cc1 [Production Example 59, 5-isopropoxy-3-(4-methoxycarbonylaminomethylphenoxy)-N-thiazol-2-yl-benzamide]"

# From US7754743B2, “Heteroarylcarbamoylbenzene derivatives” (Banyu Pharmaceutical Co., Ltd., priority 2003, dated 2010)
